In test [1] the target is T1, CHO cells expressing α2β1 integrin (Homo sapiens, UniProt P05556+P17301).
T1 sequence (P17301 1-1181): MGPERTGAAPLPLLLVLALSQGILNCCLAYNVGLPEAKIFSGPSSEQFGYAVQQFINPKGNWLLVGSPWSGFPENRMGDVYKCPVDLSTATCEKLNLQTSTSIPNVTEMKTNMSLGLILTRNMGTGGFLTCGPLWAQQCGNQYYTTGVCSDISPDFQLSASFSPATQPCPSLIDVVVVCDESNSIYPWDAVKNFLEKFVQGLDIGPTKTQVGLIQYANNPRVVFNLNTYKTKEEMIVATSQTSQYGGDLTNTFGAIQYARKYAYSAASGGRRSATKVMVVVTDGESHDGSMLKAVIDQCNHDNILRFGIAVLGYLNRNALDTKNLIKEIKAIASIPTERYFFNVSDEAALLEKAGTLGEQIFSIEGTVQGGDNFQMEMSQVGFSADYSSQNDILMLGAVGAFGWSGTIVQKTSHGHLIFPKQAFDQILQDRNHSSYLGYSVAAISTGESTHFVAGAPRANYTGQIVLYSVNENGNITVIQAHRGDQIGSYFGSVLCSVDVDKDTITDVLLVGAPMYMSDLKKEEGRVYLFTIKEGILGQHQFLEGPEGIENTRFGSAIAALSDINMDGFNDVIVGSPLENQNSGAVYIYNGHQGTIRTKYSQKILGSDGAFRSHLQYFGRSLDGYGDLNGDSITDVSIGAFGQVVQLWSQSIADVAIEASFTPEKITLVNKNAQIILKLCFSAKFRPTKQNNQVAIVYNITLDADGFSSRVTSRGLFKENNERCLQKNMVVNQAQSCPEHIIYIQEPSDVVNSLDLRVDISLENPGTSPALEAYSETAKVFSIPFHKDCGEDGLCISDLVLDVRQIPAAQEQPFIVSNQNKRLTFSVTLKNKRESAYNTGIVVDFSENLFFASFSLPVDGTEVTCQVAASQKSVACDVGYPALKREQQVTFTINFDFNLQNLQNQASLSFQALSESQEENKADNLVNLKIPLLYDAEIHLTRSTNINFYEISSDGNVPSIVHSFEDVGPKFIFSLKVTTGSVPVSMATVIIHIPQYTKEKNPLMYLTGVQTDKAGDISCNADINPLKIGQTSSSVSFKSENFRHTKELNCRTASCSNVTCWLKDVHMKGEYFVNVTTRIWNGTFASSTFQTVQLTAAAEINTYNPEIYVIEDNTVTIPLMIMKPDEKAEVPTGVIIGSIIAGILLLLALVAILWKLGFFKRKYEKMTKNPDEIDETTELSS
Kind of test: Cell adhesion assay, CHO-α2 cells on collagen type I. In kind it is cell-based, Chinese Hamster. Here is the method:
Chinese Hamster Ovary (CHO) cell clone expressing wild type α2 integrin was used in cell adhesion assay. Cells were suspended in serum free medium containing 0.1 mg/ml cycloheximide (Sigma) and the compounds were preincubated with the cells prior to transfer to the wells. Cells (150000/well) were allowed to attach on collagen type I coated wells (in the presence and absence of inhibitor compounds) for 2 h at +37° C. and after that non-adherent cells were removed. Fresh serum free medium was added and the living cells were detected using a cell viability kit (Roche) according to the manufacturers protocol.
For this purpose CHO cells were transfected to express α2β1 integrin on their surface as their only collagen receptor.

The next test has as its system PC-3 cells. In words: Cell invasion assay, PC-3 cells through Matrigel. The note with it: Homo sapiens, 72 hours. In kind it is cell-based. Here is the method:
Experimental procedure. […] Inserts were stored at −20° C. […] The remaining media was aspirated. […] Inserts were allowed to dry. Fixed invaded cells were calculated under the microscope. Invasion % was calculated as a comparison to the control.

As usually defined, the inhibition is how much of the control response was suppressed. For orientation: pEC50 means the EC50 on a negative log10 scale, so that one unit is a factor of ten.

pEC50: −log10 of the molar value.

For the compound `O=S(=O)(Nc1ccc(C(O)c2ccccc2)cc1)c1cccc(-c2ccc(F)cc2)c1` (stereo not drawn) [Compound 452], in test [1] (CHO), 50 µM produced 83% inhibition. Besides, the pEC50 in test [1] (CHO-α2 cells, collagen type I, read-out: EC50, adhesion) was 5.03; in the test on PC-3 cells, 6.10.

The record behind these values is patent US20090286713A9, “Collagen Receptor I-Domain Binding Modulators” (Biotie Therapies Corporation, priority 2005, published 2009).
